By IC50 is commonly meant the concentration that gives 50% inhibition.

For the assay, the system named is GROα-induced expression of the integrin CD11b on neutrophils in human whole blood. Briefly: CD11b human whole blood assay. It counts as cell-based. The conditions noted are these: Neutrophil, 10 nM GROα. As for the experimental part: The compounds indicated were tested for their ability to inhibit the GROα-induced expression of the integrin CD11b on neutrophils in human whole blood.
Blood was drawn (9 ml) using a butterfly line and a 10 ml syringe containing 0.2 ml of working Sodium Heparin. The blood was kept at 37° C. until placed on ice in step 5 below. Compound stock solutions were then diluted to 12 times the maximum final concentration, 120 uM. Half Log serial dilutions were then performed in vehicle. Ten microliters of the compound dilutions or vehicle were then added to the appropriate 12×75 polypropylene tubes. One hundred microliters of whole blood was added per tube and incubated for 10 minutes, in a 37° C. water bath with initial (gentle) agitation and again at 5 minutes. The GROα stock was diluted 1:166.66 in 0.1% BSA-DPBS to “12×” concentration of 120 nM and 10 ul of the GROα dilution or 01% BSA-DPBS was added to the appropriate tubes so that the final GROα concentration equaled 10 nM. The tubes were incubated for 10 min at 37° C. with gentle hand agitation and again at 5 minutes. Samples were then placed on ice and 250 ul of ice cold CellFix working dilution was added followed by a one minute incubation on ice. 1.5 ml Eppendorf tubes were readied during GROα incubation by adding the appropriate antibodies. Every tube received 10 ul of CD11b-FITC and 5 ul of CD16-PE, except for the isotype control which received 10 ul of IgG2a-FITC instead of CD11b. Addition of 50 ul of the fixed blood from each tube was added to the appropriate Eppendorf tube. Samples were allowed to then incubate for 20 min at 4° C. in the dark. Addition of the blood/antibody mixtures to 500 ul of cold DPBS were added to the appropriately labeled 12×75 polystyrene tube. The resulting mixture was kept on ice. LDS stock (10 ul) was added and the mixture was incubated for 10 min at 4° C. before flow analysis. Samples were kept in a darkened environment. The LDS addition was staggered as the samples were collected on the flow cytometer so that all samples were run ˜10-20 minutes post-LDS addition.
Medium flow rate was used for flow collection and FL3 threshold increased to eliminate red blood cells from analysis using the LDS signal. The color compensation was properly set using unlabeled samples and one-color samples to subtract LDS spill into PE and the PE spill into FITC and FITC into PE. For the BD LSR cytometer, LDS=FL3, PE=FL2, FITC=FL1. A minimum of 2000-3000 events that satisfy the granulocyte gate by SSC vs. FSC and were CD16 positive by the FL2 signal were collected.

Setting [1] is: activity threshold, read-out: IC50, inhibition of GROα-induced CD11b expression on neutrophils.
The mark [2] stands for this setting: from about 3 uM to about 0.7 uM, read-out: IC50, inhibition of GROα-induced CD11b expression on neutrophils (span of the tested compounds).

Read-outs that look alike come from different tables or passages of the source.

As for `O=C(Nc1ccc(Cl)c(S(=O)(=O)N2CC3CC2CN3)c1O)Nc1cccc(F)c1Cl` (racemic) [Example 23, (+/−)-N-[4-chloro-3-(2,5-diazabicyclo[2.2.1]hept-2-ylsulfonyl)-2-hydroxyphenyl]-N′-(2-chloro-3-fluorophenyl)urea], the IC50 is under 5 µM under setting [1] and 0.7 to 3 µM under setting [2].
For `CCc1ccccc1NC(=O)Nc1ccc(Cl)c(S(=O)(=O)N2C[C@H]3C[C@@H]2CN3)c1O` (stereo in doubt) [Example 12, N-{4-chloro-3-[(1R,4R)-2,5-diazabicyclo[2.2.1]hept-2-ylsulfonyl]-2-hydroxyphenyl}-N′-(2-ethylphenyl)urea], in that order: under 5 µM and 0.7 to 3 µM.
For `O=C(Nc1ccc(Cl)c(S(=O)(=O)N2C3CC[C@H]2CNC3)c1O)Nc1cccc(F)c1Cl` (stereo in doubt) [Example 45, N-{4-chloro-3-[(1S,5S)-3,8-diazabicyclo[3.2.1]oct-8-ylsulfonyl]-2-hydroxyphenyl}-N′-(2-chloro-3-fluorophenyl)urea], the half-maximal inhibitory concentration (IC50) is, setting by setting: under setting [1], under 5 µM; under setting [2], 0.7 to 3 µM.
Regarding `O=C(Nc1ccc(Cl)c(S(=O)(=O)N2C[C@@H]3C[C@H]2CN3)c1O)Nc1cccc(F)c1Cl` [Example 1, N-[4-chloro-3-[(1S,4S)-2,5-diazabicyclo[2.2.1]hept-2-ylsulfonyl]-2-hydroxyphenyl]-N′-(2-chloro-3-fluorophenyl)urea], the IC50 was under 5 µM under setting [1] and 0.7 to 3 µM under setting [2].
On the same counts, the results for `O=C(Nc1ccc(Cl)c(S(=O)(=O)N2C[C@@H]3C[C@H]2CN3CC2CC2)c1O)Nc1cccc(F)c1Cl` [Example 2, N-(4-chloro-3-{[(1S,4S)-5-(cyclopropylmethyl)-2,5-diazabicyclo[2.2.1]hept-2-yl]sulfonyl}-2-hydroxyphenyl)-N′-(2-chloro-3-fluorophenyl)urea] are under 5 µM and 0.7 to 3 µM.
As for `O=C(Nc1cccnc1Cl)Nc1ccc(Cl)c(S(=O)(=O)N2CCn3ccnc3C2)c1O` [Example 3, N-[4-chloro-3-(5,6-dihydroimidazo[1,2-a]pyrazin-7(8H)-ylsulfonyl)-2-hydroxyphenyl]-N′-(2-chloro-3-pyridinyl)urea], the IC50 by setting is: under setting [1], under 5 µM; under setting [2], 0.7 to 3 µM.
For `Cc1c(F)cccc1NC(=O)Nc1ccc(Cl)c(S(=O)(=O)N2C[C@H]3CC[C@@H](C2)N3)c1O` [Example 17, N-[4-chloro-3-(3,8-diazabicyclo[3.2.1]oct-3-ylsulfonyl)-2-hydroxyphenyl]-N′-(3-fluoro-2-methylphenyl)urea], in that order: under 5 µM and 0.7 to 3 µM.
As to `O=C(Nc1ccccc1Oc1ccccc1)Nc1ccc(Cl)c(S(=O)(=O)N2C[C@H]3CC[C@@H](C2)N3)c1O` [Example 18, N-[4-chloro-3-(3,8-diazabicyclo[3.2.1]oct-3-ylsulfonyl)-2-hydroxyphenyl]-N′-[2-(phenyloxy)phenyl]urea], the IC50 reads like this: under setting [1], under 5 µM; under setting [2], 0.7 to 3 µM.
Regarding `O=C1C[C@H]2CC[C@@H](C1)N2S(=O)(=O)c1c(Cl)ccc(NC(=O)Nc2cccc3c2OC(F)(F)O3)c1O` [Example 26, N-(4-chloro-2-hydroxy-3-{[(1R,5S)-3-oxo-8-azabicyclo[3.2.1]oct-8-yl]sulfonyl}phenyl)-N′-(2,2-difluoro-1,3-benzodioxol-4-yl)urea], the 50% inhibitory concentration (IC50) is under 5 µM under setting [1] and 0.7 to 3 µM under setting [2].

These data come from patent US8097626B2, “IL-8 receptor antagonists” (GlaxoSmithKline LLC, priority 2006, dated 2012).
